Results reported in PubChem BioAssay AID1996.
In brackets after ≈: the same amount, converted by molar mass.

conditions: buffer; pH 7.4; 200.0 µM

Row | SMILES | solubility kinetic
1 | S=c1[nH]c2cc(Br)cnc2[nH]1 | 34.4 µg/mL (≈ 150 µM)
2 | COc1ccc(/C=C/C(=O)NC(=S)N2CCCCC2)cc1OC | > 50.2 µg/mL
3 | N#C/C(=C\c1ccccc1)C(=O)Nc1nncs1 | > 38.4 µg/mL
4 | O=[N+]([O-])c1cccc(C2(O)COc3ccccc3O2)c1 (stereo unspecified) | > 41 µg/mL
5 | CC(=Nc1ccccc1C(F)(F)F)c1ccncc1 | < 0.3 µg/mL
6 | C=CCNC(=O)C1=NN(c2c(F)c(F)cc(F)c2F)C(=O)CC1 | > 49.4 µg/mL
7 | N#Cc1ccccc1OCC(=O)OCC(=O)NC1CCS(=O)(=O)C1 (stereo unspecified) | > 52.9 µg/mL
8 | O=C1CN(CC(=O)NC2CCCc3ccccc32)CCN1 (stereo unspecified) | > 43.1 µg/mL
9 | COc1ccc2c(c1)C1OCCC1C(c1ccco1)N2 (stereo unspecified) | > 40.7 µg/mL
10 | CC(C)C(NC(=O)c1ccc(Cl)cc1)C(=O)NCC1CCCO1 (stereo unspecified) | > 50.8 µg/mL
11 | CSc1ncccc1C(=O)N(C)CC(=O)Nc1cccc(F)c1 | > 50 µg/mL
12 | COc1ccccc1NC(=O)CSc1nncs1 | > 42.2 µg/mL
13 | COc1ccc(NC(C)C(=O)Nc2cccc(S(=O)(=O)N3CCOCC3)c2)cc1OC (stereo unspecified) | > 67.4 µg/mL
14 | COCCN(C(=S)Nc1cccc(C)c1)C(C)c1cccnc1 (stereo unspecified) | 48.2 µg/mL (≈ 146 µM)
15 | CS(=O)(=O)Nc1ccccc1C(=O)NCCSc1ccc(Cl)cc1 | 33.8 µg/mL (≈ 87.8 µM)
16 | C=CCNC(=O)C1CCC(C(=O)NCC=C)CC1 (stereo unspecified) | > 37.6 µg/mL
17 | Cl.O=C(OCCN1CCCCC1)c1cccc(Cl)c1 | > 45.6 µg/mL
18 | O=C1C(Cl)=C(N2CCCC2)C(=O)N1c1ccc(F)cc1 | 7.4 µg/mL (≈ 25.1 µM)
19 | O=C(NCCc1ccc(F)cc1)c1cccc(NC(=O)c2ccccc2)c1 | 6 µg/mL (≈ 16.6 µM)
20 | CCCC(=O)Oc1ccc(-c2nccc(C(OC)OC)n2)cc1 | 46.1 µg/mL (≈ 146 µM)
21 | CN1CCN(S(=O)(=O)c2ccc(NC(=O)c3ccc([N+](=O)[O-])cc3)cc2)CC1 | 4.9 µg/mL (≈ 12.1 µM)
22 | CC(C)(Oc1ccc(Cl)cc1)C(=O)O/N=C(\N)c1ccncc1 | 34.3 µg/mL (≈ 103 µM)
23 | COc1ccccc1NC(=O)C1CCN(C(=O)c2ccco2)CC1 | > 49.3 µg/mL
24 | Cc1ccc(-c2nc(-c3ccncc3)no2)cc1 | 1.1 µg/mL (≈ 4.64 µM)
25 | CC(=O)c1ccc(NC(=S)NCc2cccnc2)cc1 | > 42.8 µg/mL

Row | SMILES | solubility kinetic
26 | O=C(Nc1ccccc1F)c1ccc2ncsc2c1 | > 40.8 µg/mL
27 | O=C(Cc1ccc(Br)cc1)NCCc1ccc(F)cc1 | 14.9 µg/mL (≈ 44.3 µM)
28 | O=C(COC(=O)CSc1ccccc1)Nc1ccc(F)cc1F | > 50.6 µg/mL
29 | Fc1ccccc1-c1nc(NCc2ccccc2)c2ccccc2n1 | 3.1 µg/mL (≈ 9.41 µM)
30 | O=C(O)COCC(=O)N1CCCN(c2nc3ccc(Cl)cc3s2)CC1 | > 57.6 µg/mL
31 | Cc1cc(C)cc(Nc2ccc(C(=O)O)cc2[N+](=O)[O-])c1 | > 42.9 µg/mL
32 | COc1cccc(C(=O)Nc2ccc3c(c2)OCO3)c1OC | 36.8 µg/mL (≈ 122 µM)
33 | CCN1CCN(c2ccc(NC(=O)c3ccco3)cc2Cl)CC1 | 45.2 µg/mL (≈ 135 µM)
34 | Cc1cc(C)c(C)c(S(=O)(=O)N2CCCN(C)CC2)c1C | > 46.6 µg/mL
35 | Cc1ccc(N=C2C(=O)Nc3ccccc32)c(C)c1 | 28.8 µg/mL (≈ 115 µM)
36 | O=S(=O)(c1cccs1)N1CCN(c2ccccc2F)CC1 | 15.6 µg/mL (≈ 47.8 µM)
37 | O=C1CCCCCCCCCC/C(=N\O)CCCO1 | 9.8 µg/mL (≈ 36.4 µM)
38 | Cc1ccccc1C1NC(=O)c2ccccc2O1 (stereo unspecified) | 18.3 µg/mL (≈ 76.5 µM)
39 | O=S(=O)(CCN1CCOCC1)c1ccc(OC(F)(F)F)cc1 | > 50.9 µg/mL
40 | Cc1c(N)cc[n+](CC(=O)c2ccccc2)c1C.[Br-] | > 48.2 µg/mL
41 | O=C(/C=C/c1ccc(Cl)c([N+](=O)[O-])c1)c1ccc(O)cc1 | 3.9 µg/mL (≈ 12.8 µM)
42 | O=C(NCCc1ccc(Cl)cc1)C1CCCO1 (stereo unspecified) | > 38.1 µg/mL
43 | COc1cccc2cc(C(=O)N3CCCCCCC3)c(=O)oc12 | > 47.3 µg/mL
44 | CCN1CCN(S(=O)(=O)c2ccc3c4c(cccc24)C(=O)N3CC)CC1 | > 56 µg/mL
45 | Cc1nc2ccccc2n1Cc1ccc(Cl)cc1 | 24.9 µg/mL (≈ 97 µM)
46 | CC(=O)CC(C)(C)NC(C)=S | > 26 µg/mL
47 | Nc1nc2ccccc2cc1S(=O)(=O)c1ccccc1 | 1.1 µg/mL (≈ 3.87 µM)
48 | CC(NC(=O)COC(=O)c1nc(Cl)ccc1Cl)c1ccccc1 (stereo unspecified) | > 53 µg/mL
49 | CCN(CC)c1ccc(NC(=S)NCC2CCCO2)cc1 (stereo unspecified) | 34.1 µg/mL (≈ 111 µM)
50 | CC1Cc2ccccc2N1C1=CC(=O)CCC1 (stereo unspecified) | > 34.1 µg/mL

Row | SMILES | solubility kinetic
51 | COc1ccc(CC(=O)OCC(=O)c2ccc[nH]2)cc1 | > 41 µg/mL
52 | CC(C)N1CC(C(=O)Nc2ccc(C#N)cc2)CC1=O (stereo unspecified) | > 40.7 µg/mL
53 | CCc1ccccc1OCC(=O)NCC1COc2ccccc2O1 (stereo unspecified) | 14.9 µg/mL (≈ 45.5 µM)
54 | OC(C[n+]1ccccc1)c1ccccc1.[Br-] (stereo unspecified) | > 42 µg/mL
55 | CCOC(=O)C1(C)NC(c2ccco2)C2C(=O)N(C)C(=O)C21 (stereo unspecified) | > 45.9 µg/mL
56 | O=C(CSc1ccc(F)cc1)Nc1cccc(S(=O)(=O)N2CCOCC2)c1 | > 61.6 µg/mL
57 | Cc1ccc2nc(N3CCOCC3)c(C=O)c(=O)n2c1 | > 41 µg/mL
58 | COCCn1cnc2c1c(=O)n(CC(=O)NCC(F)(F)F)c(=O)n2Cc1ccccc1 | 39.9 µg/mL (≈ 90.8 µM)
59 | Cc1ccc(N2CCN(C(=O)NC3CCCCC3)CC2C)cc1 (stereo unspecified) | > 47.3 µg/mL
60 | Cc1ccc(NP(=O)(c2ccccc2)c2nc3ccccc3s2)cc1 (stereo unspecified) | 2.2 µg/mL (≈ 6.04 µM)
61 | Cc1cccc(/C=N/NC(=O)c2cc(C)nc3ccccc23)n1 | > 45.7 µg/mL
62 | O=C(CCCC(=O)NC1CCCCC1)Nc1ccc([N+](=O)[O-])cc1 | 12 µg/mL (≈ 36 µM)
63 | COc1ccc(C(=O)NCc2ccc3c(c2)OCO3)cc1 | 42.4 µg/mL (≈ 149 µM)
64 | COc1cc(OC)c(C2Nc3cccc4cccc(c34)N2)c(OC)c1 | 4.4 µg/mL (≈ 13.1 µM)
65 | N#Cc1cc(C#N)c(SCC(=O)NCC2CCCO2)nc1N (stereo unspecified) | > 47.6 µg/mL
66 | Cc1ccc(C(=O)OCC(=O)NCCc2ccccc2)cc1C | 11.3 µg/mL (≈ 36.3 µM)
67 | O=C(COC(=O)/C=C/c1cccc([N+](=O)[O-])c1)NCc1ccco1 | 18.5 µg/mL (≈ 56 µM)
68 | CCOc1ccc2[nH]c3ncccc3c(=O)c2c1 | 3.7 µg/mL (≈ 15.4 µM)
69 | Fc1ccc(CCNC(=S)Nc2ccc(F)c(Cl)c2)cc1 | 23.9 µg/mL (≈ 73.1 µM)
70 | O=C(O)c1ccccc1-c1ccccc1C(=O)Nc1ccc(OC(F)(F)F)cc1 | > 60.2 µg/mL
71 | O=[N+]([O-])c1ccc(C(O)C23CN4CN(CN(C4)C2)C3)cc1 (stereo unspecified) | 34.8 µg/mL (≈ 120 µM)
72 | CNC(=O)C(=O)NCCCN1CCOCC1 | > 34.4 µg/mL
73 | COc1ccc(CCCC(=O)NCCc2ccccc2)c(C)c1 | 10.5 µg/mL (≈ 33.7 µM)
74 | COC(=O)c1sc2nc3c(cc2c1N)CCCC3 | 2 µg/mL (≈ 7.62 µM)
75 | CC1CCCN(C(=O)C2CCN(S(=O)(=O)c3ccccc3)CC2)C1 (stereo unspecified) | > 52.6 µg/mL

Row | SMILES | solubility kinetic
76 | Cc1ccc(C(C)NC(=O)C2CCCC2)c(C)c1 (stereo unspecified) | 34.2 µg/mL (≈ 139 µM)
77 | NCCCCCC(=O)O | 0.9 µg/mL (≈ 6.86 µM)
78 | c1cc2c3c(cccc3c1)C(N1CCOCC1)=N2 | 34.8 µg/mL (≈ 146 µM)
79 | Cc1cccc(N2CC(C(=O)OCC(=O)Nc3sccc3C(N)=O)CC2=O)c1C (stereo unspecified) | 6.5 µg/mL (≈ 15.6 µM)
80 | Cc1csc2c(=O)sc(NC(=O)c3ccc(F)cc3)nc12 | < 0.3 µg/mL
81 | COc1cc(C(=O)OCC(=O)NC2CCCC2)cc(OC)c1OC | > 50.6 µg/mL
82 | Cc1cc(C)c(S(=O)(=O)Nc2cc(C)on2)c(C)c1 | 37.2 µg/mL (≈ 133 µM)
83 | Cn1ccnc1SCC(=O)c1c(N)n(C)c(=O)n(C)c1=O | 41.5 µg/mL (≈ 134 µM)
84 | CN(C)c1ncnc(N(C)C)c1[N+](=O)[O-] | > 31.7 µg/mL
85 | CCOc1ccc(N2CC(C(=O)NCc3ccco3)CC2=O)cc1 (stereo unspecified) | > 49.3 µg/mL
86 | O=C1Nc2ccccc2C1=Nc1ccc(Cl)cc1 | 13.5 µg/mL (≈ 52.6 µM)
87 | Cc1cc(C)nc(NC(=O)c2ccc([N+](=O)[O-])c(C)c2)n1 | 13.3 µg/mL (≈ 46.5 µM)
88 | O=C(c1ccc(Cl)cc1)N1CCC2(CC1)OCCO2 | 39.6 µg/mL (≈ 141 µM)
89 | Cc1cccc(C)c1NC(=S)NCc1ccncc1 | > 40.7 µg/mL
90 | COc1ccc2[nH]c(C(=O)N3CCC(Cc4ccccc4)CC3)cc2c1 | < 0.4 µg/mL
91 | C/C(Cn1ncc(N2CCOCC2)c(Cl)c1=O)=N\O | > 43 µg/mL
92 | O=C(N[C@@H](Cc1c[nH]c2ccccc12)C(=O)O)c1ccc(Cl)cc1 | > 51.4 µg/mL
93 | CCOc1ccc(Nc2cc(C)c3ccccc3n2)cc1 | < 0.3 µg/mL
94 | O=C(NCc1ccccc1CN1CCCC1)c1cc2ccccc2o1 | > 50.2 µg/mL
95 | CCCCCC(=O)O/N=C(\C)c1ccn(S(=O)(=O)c2ccccc2)c1 | 1.3 µg/mL (≈ 3.59 µM)
96 | O=C(CN1CCCCC1)Nc1scc2c1c(=O)oc1ccccc12 | < 0.4 µg/mL
97 | Cc1cc(C(=O)O)ccc1N=Cc1c(O)ccc2ccccc12 | > 45.8 µg/mL
98 | O=C(COc1ccccc1C(=O)O)NC1CCCc2ccccc21 (stereo unspecified) | 13.8 µg/mL (≈ 42.4 µM)
99 | CC(C)c1nc(SCC(=O)NC(=O)NC(C)(C)C)n[nH]1 | > 44.9 µg/mL
100 | O=C(NCCc1c[nH]c2ccccc12)C(=O)c1c[nH]c2ccccc12 | 4.2 µg/mL (≈ 12.7 µM)

Row | SMILES | solubility kinetic
101 | CCCCNC(=O)COC(=O)c1ccc(C)c(NC(=O)c2ccco2)c1 | 17.8 µg/mL (≈ 49.7 µM)
102 | Cc1c(NC(=O)COC(=O)C2=COCCO2)cccc1[N+](=O)[O-] | > 48.3 µg/mL
103 | O=C(COC(=O)CNC(=O)c1ccccc1F)Nc1ccc(Cl)cn1 | 22.2 µg/mL (≈ 60.7 µM)
104 | Cn1c(=O)c2ccccc2n2c(=S)[nH]nc12 | > 34.8 µg/mL
105 | O=C(CSc1ccccn1)NC1CCCC1 | > 35.4 µg/mL
106 | Cc1ccc(-n2c(SCC(N)=O)nnc2-c2cnccn2)cc1 | > 49 µg/mL
107 | O=C(OCc1c(F)cccc1Cl)c1cnc2ccccc2n1 | 1.8 µg/mL (≈ 5.68 µM)
108 | Cl.NC(N)=Nc1nc(-c2ccccc2)c2cc(Cl)ccc2n1 | 9.7 µg/mL
109 | CC(=O)Nc1cccc(C(=O)Nc2nc(C)cs2)c1 | 37.4 µg/mL (≈ 136 µM)
110 | O=C(Nc1ccc(Cl)cc1Cl)c1ccc(Br)o1 | < 0.7 µg/mL
111 | Cc1ccc(CCCOC(=O)CN2CCCCC2)cc1 | 23.5 µg/mL (≈ 85.3 µM)
112 | O=C(COC(=O)c1cccc(F)c1)Nc1cccnc1Cl | 41.7 µg/mL (≈ 135 µM)
113 | Cc1cc(S(=O)(=O)NCc2cccnc2)ccc1F | 33.7 µg/mL (≈ 120 µM)
114 | COc1ccc(C(=O)Nc2ccc3ccccc3n2)c(OC)c1OC | 2.2 µg/mL (≈ 6.5 µM)
115 | CC(C)n1c(SCC(=O)NC2CC2)nnc1C1CC1 | > 42.1 µg/mL
116 | Cc1cccc(CC2CC(=O)N(c3ccc([N+](=O)[O-])cc3)C2=O)c1 (stereo unspecified) | 21 µg/mL (≈ 64.7 µM)
117 | CCN(CC)C(=O)c1ccc(S(=O)(=O)c2ccccc2)cc1 | 33.6 µg/mL (≈ 106 µM)
118 | CC(=O)c1cccc(NC(=O)CSc2nc3ccccc3c(=O)n2CCCN2CCOCC2)c1 | > 72.1 µg/mL
119 | CC(C)C(NC(=O)c1ccco1)C(=O)NC1CCCCCC1 (stereo unspecified) | 37.8 µg/mL (≈ 123 µM)
120 | CCN(CC)Cc1ccccn1.Cl | 29.2 µg/mL
121 | Cc1cc(C)c(S(=O)(=O)c2cc(F)ccc2C)c(=O)[nH]1 | 13.3 µg/mL (≈ 45 µM)
